For data set [1], the target named is T1, rat cloned 5-HT7 receptor (Rattus norvegicus, UniProt P32305).
T1 construct: purchased PerkinElmer-NEN; host or cells: HEK-293
Briefly: Radioligand binding assay ([3H]-LSD) at rat cloned 5-HT7Rs. The following applies: for Ki: [3H]-LSD, rat recombinant 5-HT7R expressed in HEK-293 cells. The protocol:
Rat recombinant serotonin 5-HT7R expressed in HEK-293 cells were purchased from PerkinElmer-NEN (Betsville, Md., USA).
Radioligand Binding Assay at Rat Cloned 5-HT7Rs. Binding of [^3H]-LSD at rat cloned 5-HT7 receptor was performed according to a known method. In 1 mL of incubation buffer (50 mM Tris, 10 mM MgCl2 and 0.5 mM EDTA, pH 7.4) were suspended 30 μg of membranes, 2.5 nM [^3H]-LSD, the drugs or reference compound (six to nine concentrations). The samples were incubated for 60 min at 37° C. The incubation was stopped by rapid filtration on GF/A glass fiber filters (pre-soaked in 0.5% polyethylenimine for 30 min). The filters were washed with 3 ? 3 mL of ice-cold buffer (50 mM Tris, pH 7.4). Nonspecific binding was determined in the presence of 10 μM 5-CT. Approximately 90% of specific binding was determined under these conditions.

The target of data set [2] is T2, 5-HT1A receptors (Rattus norvegicus, UniProt P19327).
T2 sequence (P19327 1-422): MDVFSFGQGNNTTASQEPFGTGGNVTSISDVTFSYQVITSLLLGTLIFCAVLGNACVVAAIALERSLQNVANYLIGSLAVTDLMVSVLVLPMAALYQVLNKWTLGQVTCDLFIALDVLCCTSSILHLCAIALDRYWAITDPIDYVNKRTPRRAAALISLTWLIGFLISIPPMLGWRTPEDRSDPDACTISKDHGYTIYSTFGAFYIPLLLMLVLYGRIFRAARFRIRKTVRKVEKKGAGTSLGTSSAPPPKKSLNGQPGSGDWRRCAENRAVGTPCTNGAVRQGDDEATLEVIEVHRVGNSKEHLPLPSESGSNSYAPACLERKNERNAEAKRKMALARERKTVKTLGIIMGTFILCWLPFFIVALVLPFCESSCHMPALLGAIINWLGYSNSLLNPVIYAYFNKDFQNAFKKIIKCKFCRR
The following applies: for Ki: read-out: Ki, nM 5-HT1A, [3H]-8-OH-DPAT, rat hippocampal membranes.
Protocol: Radioligand Binding Assay at Rat Hippocampal Membranes 5-HT1A Receptors. Binding experiments were performed according to a known method. Rats were killed by decapitation, the brain was quickly removed, and the hippocampus was dissected. […] The homogenate was centrifuged at 48000 g for 15 min at 4° C. The supernatant was discarded, and the pellet was resuspended in 25 mL of buffer, then preincubated for 10 min at 37° C. The homogenate was centrifuged at 48000 g for 15 min at 4° C. The supernatant was discarded, and the final pellet was stored at −80° C. until used. […] For competitive inhibition experiments various concentrations of drugs studied were incubated. […] Samples were incubated at 37° C. for 20 min and then filtered on Whatman GF/B glass microfiber filters.
Statistical Analysis. […] The value for the inhibition constant, Ki, was calculated by using the Cheng-Prusoff equation.

Data set [3] addresses T3, 5-HT2A receptors (Rattus norvegicus, UniProt P14842).
Protocol: (§1) Radioligand Binding Assay at Rat Cortex Membranes 5-HT2A Receptors. […] Rats were killed by decapitation, the brain was quickly removed, and the cortex was dissected. […] The homogenate was centrifuged at 2000 g for 10 min at 4° C. The supernatant was saved, and the pellet was resuspended in 25 mL of buffer. The surnatantes were collected and diluted 1:10 w/w with 10 mM Tris pH 7.4. The homogenate was centrifugated at 35000 g for 15 min at 4° C. The supernatant was discarded, and the final pellet was stored at −80° C. until used. […] For competitive inhibition experiments various concentrations of drugs studied were incubated. […] Samples were incubated at 37° C. for 15 min and then filtered on Whatman GF/B glass microfiber filters.
(§2) Statistical Analysis. […] PRISM® program. The value for the inhibition constant, Ki, was calculated by using the Cheng-Prusoff equation.
The test system of data set [4] is hamsters. Briefly: Circadian phase shift in hamsters after injection. It is filed as in vivo. From the text:
This provides evidence that no additional receptor subtype, such as the 5-HT1A receptor or the 5-HT5A receptor, is necessary for this effect.

Data set [5] addresses 5-HT7 receptor (Cavia porcellus, UniProt P50407). The data set can be described thus: Isolated guinea-pig ileum assay: relaxation of substance P-induced contraction. The following applies: for PA2 (vs SB-269970): in the presence of antagonist SB-269970 (0.1 μM-3 μM); for 5-HT7 intrinsic activity (in words): isolated guinea-pig ileum; for Emax: read-out: Maximal Effect %; for Schild plot: vs SB-269970, p value in parentheses.
Protocol: Isolated Guinea-Pig Ileum Assay. Guinea-pigs were anesthetized and then decapitated and the proximal ileum removed. […] Changes in tension of the tissue were recorded by Fort 10 Original WPI isometric transducer (2Biological Instruments, Italy) connected to a PowerLab/400 workstation. […] Tested compounds were added 3 min before substance P addition.
The isolated guinea pig ileum was equilibrated for 75 min with antagonist before constructing concentration-response curves of tested compounds.
Tissue responses were recorded as gram changes in isometric tension and expressed as percentage of reduction in the height of the contraction.
Agonist potencies, expressed as EC50, were obtained from non-linear iterative curve fitting by [sequence] PRISM®.

Data set [6] deals with T3, 5-HT2A receptors. The data set can be described thus: Radioligand binding assay ([3H]-ketanserin) at rat cortex membranes 5-HT2A receptors. The following applies: for Ki: read-out: Ki, nM 5-HT2A, [3H]-ketanserin, rat cortex membranes.
Protocol: as §1, §2
In data set [7] the test system is isolated guinea-pig ileum. The data set can be described thus: Substance P contraction of isolated guinea-pig ileum (concentration-response). The following applies: 100 nM. The text has this: Isolated Guinea-Pig Ileum Assay.

Where a name gives a salt, the structure may show the parent alone. No end group written: not given here.

T1 sequence (P32305 whole entry): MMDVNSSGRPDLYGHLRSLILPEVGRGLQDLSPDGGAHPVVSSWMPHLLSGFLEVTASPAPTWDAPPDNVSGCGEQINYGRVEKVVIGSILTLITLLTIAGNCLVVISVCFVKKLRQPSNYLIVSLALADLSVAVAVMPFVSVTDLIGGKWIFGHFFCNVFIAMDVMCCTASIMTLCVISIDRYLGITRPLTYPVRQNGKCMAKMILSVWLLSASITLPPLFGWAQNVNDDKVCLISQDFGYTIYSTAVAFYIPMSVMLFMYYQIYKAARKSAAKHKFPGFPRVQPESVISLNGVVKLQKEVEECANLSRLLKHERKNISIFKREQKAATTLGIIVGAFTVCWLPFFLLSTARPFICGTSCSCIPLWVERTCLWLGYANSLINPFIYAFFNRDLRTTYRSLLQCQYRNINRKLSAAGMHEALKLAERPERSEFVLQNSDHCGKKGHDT
T3 sequence (P14842 whole entry): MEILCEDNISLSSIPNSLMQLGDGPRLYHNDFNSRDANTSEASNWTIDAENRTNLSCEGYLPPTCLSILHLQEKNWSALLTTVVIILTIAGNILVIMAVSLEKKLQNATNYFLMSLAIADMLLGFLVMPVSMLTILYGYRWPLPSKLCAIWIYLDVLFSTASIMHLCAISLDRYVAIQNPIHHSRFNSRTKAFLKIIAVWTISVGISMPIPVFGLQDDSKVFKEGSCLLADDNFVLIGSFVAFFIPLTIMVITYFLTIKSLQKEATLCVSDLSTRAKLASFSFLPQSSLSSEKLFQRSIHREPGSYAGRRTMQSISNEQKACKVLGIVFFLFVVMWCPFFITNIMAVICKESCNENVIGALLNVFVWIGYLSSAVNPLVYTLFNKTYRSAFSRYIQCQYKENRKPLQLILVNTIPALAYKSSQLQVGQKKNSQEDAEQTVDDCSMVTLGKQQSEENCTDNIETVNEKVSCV
Sequence of 5-HT7 receptor (P50407 whole entry): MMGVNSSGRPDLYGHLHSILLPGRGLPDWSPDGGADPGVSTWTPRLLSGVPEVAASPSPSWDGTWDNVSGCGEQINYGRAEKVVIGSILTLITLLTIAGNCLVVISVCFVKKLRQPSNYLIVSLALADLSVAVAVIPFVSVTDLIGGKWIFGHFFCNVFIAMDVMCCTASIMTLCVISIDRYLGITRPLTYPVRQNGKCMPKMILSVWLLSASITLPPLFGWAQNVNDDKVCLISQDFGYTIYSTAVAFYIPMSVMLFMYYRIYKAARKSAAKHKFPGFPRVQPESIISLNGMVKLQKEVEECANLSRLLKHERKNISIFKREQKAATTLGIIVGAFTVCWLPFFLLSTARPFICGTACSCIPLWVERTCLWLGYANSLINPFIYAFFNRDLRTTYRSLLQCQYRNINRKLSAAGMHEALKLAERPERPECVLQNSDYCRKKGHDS

Broadly, the melting point is the temperature, or range, at which the solid turns liquid. As to `COc1ccc2c(c1)C(NC(=O)CCCCN1CCN(c3ccccc3OC)CC1)CCC2` (stereo not drawn) (as salt: HCl) (hydrate or solvate) [Compound 21], the melting point lay in the range of 187 to 188 °C.
Same read-out and setting: for `COc1ccccc1N1CCN(CCCCC(=O)NC2CCCc3ccccc32)CC1` (stereo not drawn) (as salt: HCl) (hydrate or solvate) [Compound 27, 4-(2-Methoxyphenyl)-N-(1,2,3,4-tetrahydronaphthalen-1-yl)-1-piperazinepentanamide] the value was 199 to 200 °C; for `N#Cc1ccccc1N1CCN(CCCCCC(=O)NC2CCCc3ccccc32)CC1` (stereo not drawn) (as salt: HCl) (hydrate or solvate) [Compound 33], 175 to 178 °C; for `CC(=O)c1ccccc1N1CCN(CCCCCC(=O)NC2CCCc3ccccc32)CC1` (stereo not drawn) (as salt: HCl) (hydrate or solvate) [Compound 34, 4-(2-Acetylphenyl)-N-(1,2,3,4-tetrahydronaphthalen-1-yl)-1-piperazinehexanamide], 136 to 139 °C.
In turn, `COc1ccc(OC)c(N2CCN(CCCCCC(=O)NC3CCCc4ccccc43)CC2)c1` (stereo not drawn) (as salt: HCl) (hydrate or solvate) [Compound 36] gave a melting point of 124 to 126 °C.
The same measure, in the same setting: to `CS(=O)(=O)c1ccccc1N1CCN(CCCCCC(=O)NC2CCCc3ccccc32)CC1` (stereo not drawn) (as salt: HCl) (hydrate or solvate) [Compound 45] belongs 120 to 122 °C; to `COc1ccc2c(c1)C(NC(=O)CCCCCN1CCN(c3ccccc3OC)CC1)CCC2` (stereo not drawn) (as salt: HCl) [Compound 22], 175 to 178 °C.
The same measure, in the same setting: for `COc1ccccc1N1CCN(CCCC(=O)NC2CCCc3cccc(OC)c32)CC1` (stereo not drawn) (as salt: HCl) [Compound 23, N-(8-Methoxy-1,2,3,4-tetrahydronaphthalen-1-yl)4-(2-methoxyphenyl)-1-piperazinebutanamide] the value was 131 to 133 °C.
Compound `CC(=O)c1ccc(N2CCN(CCCCCC(=O)NC3CCCc4ccccc43)CC2)cc1` (stereo not drawn) (as salt: HCl) [Compound 42] gave a melting point of 112 to 114 °C.
As a reminder, the Ki is the equilibrium dissociation constant of an inhibitor or competing ligand from its target. `NC(=O)c1ccccc1N1CCN(CCCCCC(=O)NC2CCCc3ccccc32)CC1` (stereo not drawn) [Compound 43]: the inhibition constant (Ki) in data set [1] was found to be 229 ± 12 nM; in data set [2] it was 494 ± 35 nM. In addition, the “5-HT2A, percentage in parentheses after >4000” value in data set [3] was found to be 9%.
The term EC50 denotes the concentration that produces a half-maximal response. A low value points to greater potency. As to `CSc1ccccc1N1CCN(CCCCCC(=O)NC2CCCc3ccccc32)CC1` (stereo not drawn) [Compound 44, 4-(2-Methylthiophenyl)-N-(1,2,3,4-tetrahydronaphthalen-1-yl)-1-piperazinehexanamide], the circadian phase shift result in data set [4] (microinjection into the dorsal raphe) is “cause phase shift advances”. Also, in data set [1], the “5-HT7R affinity (in words)” value is “high affinity” and the Ki stood at 0.22 nM. Further, in data set [2] (5-HT7R versus 5-HT1A), the “selectivity over 5-HT1A receptors” value turned out to be 200 fold. In addition, the inhibitory constant (Ki) in data set [2] was 52.7 ± 3.2 nM. In data set [5], the response was half-maximal at 2560 nM (EC50), the “PA2 (vs SB-269970)” value is reported as 7.70 ± 0.80, the “5-HT7 intrinsic activity (in words)” value is listed as “Full agonists” and the Emax was 100%. The Schild plot in data set [5] is reported as 0.9 (p < 0.0001). Moreover, the “selectivity over 5-HT2A receptors” value in data set [6] (5-HT7R versus 5-HT2A) is > 1000 fold. Moreover, the inhibitory constant (Ki) in data set [6] amounted to 326 ± 35 nM.
Take `CS(=O)(=O)c1ccccc1N1CCN(CCCCCC(=O)NC2CCCc3ccccc32)CC1` (stereo not drawn) [Compound 45]: the results for the inhibitory constant (Ki) in data set [1] and in data set [2] were 298 ± 16 nM and 3120 ± 260 nM, respectively. The “5-HT2A, percentage in parentheses after >4000” value in data set [3] turned out to be 38%.
For the compound `O=C(CCCCCN1CCN(c2ccccc2O)CC1)NC1CCCc2ccccc21` (stereo not drawn) [Compound 46, 4-(2-Hydroxyphenyl)-N-(1,2,3,4-tetrahydronaphthalen-1-yl)-1-piperazinehexanamide], in data set [1], the “5-HT7R affinity (in words)” value was “high affinity” and the inhibitory constant (Ki) worked out at 11.4 ± 2.3 nM. For the same compound, the inhibitory constant (Ki) in data set [2] came to 24 ± 6.3 nM. In data set [5], the “5-HT7 intrinsic activity (in words)” value is given as “antagonist”, the Emax was found to be 0% and the Schild plot is 1.6 (p < 0.005). Moreover, the inhibitory constant (Ki) in data set [6] is 3390 ± 225 nM.
On to `Cc1ccccc1N1CCN(CCCCCC(=O)NC2CCCc3ccccc32)CC1` (stereo not drawn) [Compound 49, 4-(2-Methylphenyl)-N-(1,2,3,4-tetrahydronaphthalen-1-yl)-1-piperazinehexanamide], for which, in data set [1], the “5-HT7R affinity (in words)” value is reported as “high affinity” and the inhibition constant Ki was 15.2 ± 3.2 nM. For the same compound, the Ki in data set [2] was 279 ± 44 nM. Besides, in data set [5], the EC50 is 1820 ± 720 nM, the “PA2 (vs SB-269970)” value was found to be 7.80 ± 0.40, the “5-HT7 intrinsic activity (in words)” value is given as “Full agonists” and the Emax amounted to 98%. For the same compound, in data set [5], the Schild plot is listed as 0.9 (p < 0.0001). For the same compound, in data set [6], the inhibition constant (Ki) was 262 ± 24 nM.
Regarding `CC1CCN(CC[C@H]2CCCN2S(=O)(=O)c2cccc(O)c2)CC1` [SB-26770-A, reference compound], in data set [4] (microinjection into the dorsal raphe before compound 44, relative to vehicle pretreatment), the “effect on phase shifts caused by compound 44” value is on record as “significantly block phase shifts”.
“substance P: contracting agent of the guinea-pig ileum assay, purchased from Tocris Cookson (RPKPQQFFGLM; ends and bridges not checked; UniProt P20366 58-68, looked up)”: the “contraction, % of maximum contraction” value in data set [7] is listed as 80%.

Source of the values: US7488730B2, “N-(1,2,3,4-tetrahydronaphthalen-1-yl)-4-phenyl-1-piperazinealkylamide derivatives, and therapeutic use thereof as 5-HT7 receptor ligands” (Universita Degli Studi Di Bari, priority 2005, dated 2009).
